Experimental data from PMC10059083, “Design, Synthesis, and Biological Evaluation of Novel Hydroxamic Acid-Based Organoselenium Hybrids” (Pharmaceuticals, 2023).
≈ marks a conversion by molar mass, not a printed value. Where two headings read alike, the source gives them in different places.

Key:
S. aureus [1] = experiment: Agar diffusion assay, S. aureus; type: cell-based, Staphylococcus aureus; design: concentration or dose not given beside the values; settings: ratio of inhibition zone of compound to that of positive control (ampicillin)
Description: (§1) The encouraging antitumor properties of the OSe compounds motivated us to evaluate their corresponding antimicrobial activities against the C. albicans fungal strain, S. aureus Gram-positive bacteria, and E. coli Gram-negative bacteria. Therefore, we applied the agar diffusion and minimum inhibitory concentration (MIC) methods using clotrimazole antifungal and ampicillin antibacterial drugs as standards.
The products’ antimicrobial properties were examined according to the previously reported method, via agar well diffusion assay against E. coli, S. aureus, and C. albicans. A microdilution method was also used to record MICs (M), following the previously reported procedure. Experimental details can be found in the Supplementary Materials. […]
1.1.2. The antimicrobial activity
The antimicrobial activities of the OSe compounds were evaluate d against C. albicans yeast as well as E. coli gram-negative and S. aureus gram-positive bacteria employing the agar well diffusion assay.
(§2) Briefly, a concentration of 1 mM was prepared for each compound by dissolving in DMSO. Paper discs of standard size […] were sterilized in an autoclave and soaked in 9 µL of the test compounds, and placed in the Petri dishes, which in turn contain a nutrient media (agar 9 g, peptone 5 g, and beef extract 3 g) seeded with the dedicated strain. Incubation lasted for 13 h at 36 0C.
Experiments were replicated three times and the antifungal clotrimazole and antibiotic ampicillin […]

MCF-7 cells = experiment: MTT antiproliferative assay, MCF-7 cells; type: cell-based; settings: for IC50: Homo sapiens, MCF7, 24 h, read-out: MCF7 IC50; for MCF7 TI (therapeutic index): ratio of IC50 against WI38 cells to IC50 against MCF-7 cells
Description: (§3) Recently, OSe agents have attracted interest due to their potential chemoprotective and antitumor properties. […] Therefore, we estimated the OSe agents’ antiproliferative activities against different cancer cells, i.e., MCF-7 and HepG2 cells and healthy lung fibroblast WI-38 cells, using the MTT assay. The drug doxorubicin was employed as the standard. The corresponding therapeutic indices (TI) are described as the proportion of the WI38 cells IC50 to the IC50 of the cancer cell (e.g., MCF-7 and HepG2) (Table 1).
(§4) The products’ anticancer activity was examined using the MTT assay against breast (MCF-7) carcinoma cells, liver (HepG2), and normal WI-38 cells, following the previously reported method. Experimental details can be found in the Supplementary Materials.
(§5) 1.1. The biological assays
(§6) 1.1.1. The anticancer activity
(§7) The breast adenocarcinoma (MCF-7), Hepatocellular carcinoma (HEPG-2), and normal fibroblast (WI-38) cells were obtained from ATCC via Holding company for biological products and vaccines (VACSERA), Cairo, Egypt. The reagents […] medium, MTT, DMSO, and fetal bovine serum was obtained from Sigma Aldrich. Dulbecco’s modified Eagle’s medium was used as the culture medium for the cells, and the cytotoxicity was evaluated using the reported MTT assay. Doxorubicin was used as the positive reference, and the IC50 values were obtained from the corresponding dose-response curve.
(§8) This colorimetric assay is based on converting the yellow tetrazolium bromide (MTT) to a purple formazan derivative by mitochondrial succinate dehydrogenase in viable cells. Cell lines were cultured in […] medium with 10% fetal bovine serum. Antibiotics added were 100 units/ml penicillin and 100µg/ml streptomycin at 37 C in a 5% Co2 incubator. The cell lines were seeded in a 96-well plate at a density of 1.0x10^4 cells/well. at 37 C for 48 h under 5% Co2. After incubation, the cells were treated with different concentrations of compounds and incubated for 13 […]
(§9) Finally, dimethyl sulfoxide (DMSO) in the volume of 100 µl is added to each well to dissolve the purple formazan formed. The colorimetric assay is measured and recorded at an absorbance of 570 […]
(§10) The percentage of the relative cell viability was calculated as (A570 of treated samples/A570 of the untreated sample) X 100. […]

[2] = DPPH radical scavenging assay; settings: for antioxidant (scavenging) activity in the DPPH assay: compounds 200 µL, 1 mM in MeOH, DPPH 400 µL, 30 min, absorbance at 517 nm
Protocol: (§11) The antioxidant activities of the OSe compounds were intensively investigated because these are usually the cause of their chemopreventive potency. Their redox activities were evaluated via DPPH and ABTS assays, using ascorbic acid as the standard. We spectrophotometrically measured the antioxidant efficiency of the OSe compounds by their ability to decolorise the DPPH^. and ABTS^. radicals at […] (Figure 2).
(§12) The compounds’ antioxidant properties were assessed by in vitro bioassays using DPPH and ABTS, following the reported method. Details are in the Supplementary Materials.
(§13) Figure 4 Estimation of the OSe compounds’ redox activities via DPPH and ABTS experiments. All tests are mean ± S.D. ABTS experiment: absorbance was followed at 734 nm for OSe compounds (50 µL, 1 mM in MeOH) and ABTS solution (60 µL). DPPH Absorbance was monitored at 517 nm for OSe compounds (200 µL, 1 mM in MeOH) and DPPH (400 µL) after 30 min. […]
1.1.3. The antioxidant activity
1.1.3.1. The DPPH bioassay
The hydrogen atom or electron donation ability of the corresponding compounds was measured by estimating the bleaching of the purple color of a methanolic solution of DPPH [5]. This spectrophotometric assay uses stable DPPH. reagent. The sample was prepared by adding […] of the OSe compounds (1 mM in methanol) to […] DPPH in methanol. After 30 min of incubation in the dark, the absorbance was read against a blank at […]. Ascorbic acid (vitamin C) and ebselen were used as standard antioxidants (positive control). A blank sample was run without DPPH. A negative control sample was run using methanol instead of the sample. The radical scavenging activity was calculated using the following equation:
Inhibition%= (Ablank-Asample)/(Ablank)*100. […]

[3] = ABTS radical scavenging assay; settings: for antioxidant (scavenging) activity in the ABTS assay: compounds 50 µL, 1 mM in MeOH, ABTS solution 60 µL, absorbance at 734 nm
Protocol: as §11, §12, §13
1.1.3.2. The ABTS bioassay
The antioxidant activity of the investigated compounds was assessed using 2,2’-azino-bis(3-ethylbenzothiazoline-6-sulphonic acid (ABTS) method. The radical cation derived from ABTS was prepared by the reaction of 60 mM ABTS solution with 0.3 M manganese dioxide solution in 0.1M phosphate buffer, pH 7. Then, the mixture was shaken, centrifuged, filtered, and the absorbance (Acontrol ) of […]
the resulting green-blue solution (ABTS radical solution) was measured at wavelength 734 nm. Then, […] of 1 mg/ml test compound in phosphate-buffered methanol was added. The absorbance (Atest) was measured. The reduction in color intensity was expressed as % inhibition. The % inhibition for each […]
compound is calculated from the following equation
Inhibition% = (Acontrol-Asample)/(Acontrol)*100
Ascorbic acid (vitamin C) was used as a standard antioxidant (positive control). A blank sample was run […]
without ABTS and using MeOH/phosphate buffer (1:1) instead of the sample. A negative control sample […]
was run with MeOH/phosphate buffer (1:1) instead of a tested compound.

S. aureus [4] = experiment: Agar diffusion assay, S. aureus; type: cell-based; settings: Staphylococcus aureus; 6-mm disks soaked with 20 μM of the OSe agents; read-out: S. aureus ZID (inhibition zone diameter)
HepG2 cells = experiment: MTT antiproliferative assay, HepG2 cells; type: cell-based; settings: for IC50: Homo sapiens, HepG2, 24 h, read-out: HepG2 IC50; for HepG2 TI (therapeutic index): ratio of IC50 against WI38 cells to IC50 against HepG2 cells
Description: Recently, OSe agents have attracted interest due to their potential chemoprotective and antitumor properties. We have developed several OSe compounds with promising antioxidant, antimicrobial, and antitumor properties. Therefore, we estimated the OSe agents’ antiproliferative activities against different cancer cells, i.e., MCF-7 and HepG2 cells and healthy lung fibroblast WI-38 cells, using the MTT assay. The drug doxorubicin was employed as the standard. The corresponding therapeutic indices (TI) are described as the proportion of the WI38 cells IC50 to the IC50 of the cancer cell (e.g., MCF-7 and HepG2) (Table 1).
as §4, §5, §6, §7, §8
Finally, dimethyl sulfoxide (DMSO) in the volume of 100 µl is added to each well to dissolve the purple formazan formed. The colorimetric assay is measured and recorded at an absorbance of 570 nm using a plate reader (EXL 800, USA). The percentage of the relative cell viability was calculated as (A570 of treated samples/A570 of the untreated sample) X 100. […]

C. albicans [5] = experiment: Agar diffusion assay, C. albicans; type: cell-based, Candida albicans; settings: for zone of inhibition at 20 µM: Candida albicans, read-out: C. albicans ZID (inhibition zone diameter); for C. albicans IA% (activity index): ratio of inhibition zone of compound to that of positive control (clotrimazole)
WI-38 cells = experiment: MTT cytotoxicity assay, normal lung fibroblast WI-38 cells; type: cell-based; settings: Homo sapiens, WI-38, 24 h, read-out: WI38 IC50
Description: as §3, §4, §5, §6, §7, §8, §9, §10

C. albicans [6] = experiment: MIC by microdilution, C. albicans; type: cell-based; settings: Candida albicans; microdilution method; read-out: MIC C. albicans
Description: as §1
The products’ antimicrobial properties were examined according to the previously reported method, via agar well diffusion assay against E. coli, S. aureus, and C. albicans. A microdilution method was also used to record MICs (M), following the previously reported procedure. Experimental details can be found in the Supplementary Materials.
as §2, with “0C. […]” for “0C.”

| SMILES | S. aureus IA% (activity index) (S. aureus [1]) [%] | IC50 (MCF-7 cells) [µM] | MCF7 TI (therapeutic index) (MCF-7 cells) | antioxidant (scavenging) activity in the DPPH assay [2] [%] | antioxidant (scavenging) activity in the ABTS assay [3] [%] | zone of inhibition at 20 µM (S. aureus [4]) [mm] | IC50 (HepG2 cells) [µM] | HepG2 TI (therapeutic index) (HepG2 cells) | zone of inhibition at 20 µM (C. albicans [5]) [mm] | C. albicans IA% (activity index) (C. albicans [5]) [%] | IC50 (WI-38 cells) [µM] | IC50 ([2]; concentration causing 50% decrease in absorbance, DPPH assay) [µM] | IC50 ([3]; concentration causing 50% decrease in absorbance, ABTS assay) [µM] | MIC (C. albicans [6]) [µM] | zone of inhibition at 20 µM (C. albicans [5]; 6-mm disks soaked with 20 μM of the OSe agents) [mm] |
| --- | --- | --- | --- | --- | --- | --- | --- | --- | --- | --- | --- | --- | --- | --- | --- |
| O=CNc1ccc([Se]CC(=O)NOCc2ccccc2)cc1 [Compound 10, N-(benzyloxy)-2-((4-formamidophenyl)selanyl)acetamide] | 28.6 | 49.3 ± 3.1 | 0.8 | 64.2 | 64.7 | 6 | 83.4 ± 4.2 | 0.5 | 7 | 29.2 | 37.4 ± 2.6 |  |  |  |  |
| O=C1O[C@H]([C@@H](O)CO)C(O)=C1O [Vitamin C, ascorbic acid, reference compound] |  |  |  | 94.5 | 88.4 |  |  |  |  |  |  | 19.18 ± 0.13 | 28.16 ± 0.19 |  |  |
| Clc1ccccc1C(c1ccccc1)(c1ccccc1)n1ccnc1 [Clotrimazole, clotrimazole, reference compound] |  |  |  |  |  |  |  |  |  | 100 |  |  |  | 2 (≈ 0.69 µg/mL) | 24 |
| O=C(C[Se]c1ccc(N2C(=O)c3ccccc3C2=O)cc1)NOCc1ccccc1 [Compound 13, N-(benzyloxy)-2-((4-(1,3-dioxoisoindolin-2-yl)phenyl)selanyl)acetamide] |  | 91.6 ± 4.6 | 0.8 | 89.4 | 87.0 |  | > 100 | 0.6 | 2 | 8.3 | 61.6 ± 3.8 |  |  |  |  |
